# In article PMC3674995, “Safety, Pharmacokinetic, and Efficacy Studies of Oral DB868 in a First Stage Vervet Monkey Model of Human African Trypanosomiasis” (PLoS Neglected Tropical Diseases, 2013):
# Several values for one entry are separate records, joined by “and”; a condition that tells them apart may be missing. Equal values may be shown once. Entries after “also recorded” stand apart in the source; their conditions may differ.
# Tests used:
# [1] = Metabolism of DB868 in vervet monkey liver microsomes; type: in vitro ADME; conditions: 10 µM, 0.5 mg/mL microsomes, 1 mM NADPH, pH 7.4, up to 120 min
# Protocol: DB868 metabolism was studied in male vervet monkey liver microsomes (custom-prepared by XenoTech, LLC, Lenexa, KS, USA) by adapting a previously published method. Briefly, incubation mixtures contained 10 µM DB868, 0.5 mg/mL monkey liver microsomes, and 3.3 mM MgCl2 in 100 mM phosphate buffer (pH 7.4). Reactions were initiated by the addition of NADPH (1 mM final concentration). Control incubations were carried out without NADPH, DB868, or liver microsomes. Aliquots (100 µL) of the reaction mixtures were removed at 0, 5, 10, 15, 30, 60 and 120 min and mixed with 100 µL of ice-cold acetonitrile. After centrifugation to pellet precipitated proteins, the supernatants were analyzed by HPLC/UV and fluorescence using the method previously described for pafuramidine (DB289) and furamidine (DB75). Metabolite identification was performed by comparing retention times to those of synthetic standards for M1 (DB1679), M2 (DB840), M3 (DB1712), and DB829. DB868 and its metabolites were quantified using a calibration curve (0.1–10 µM) generated using synthetic standards.
# [2] = test system: T. b. rhodesiense KETRI 2537; assay: Efficacy in first stage HAT vervet monkey model; type: in vivo; conditions: for time to clear parasites from the blood: after the 1st drug dose
# Protocol: Monkeys that were deemed as treatment failures/relapses or developed severe adverse clinical signs as defined in the protocol (e.g., inability or reluctance to perch, less than ¼ of normal daily feed intake for 2–3 consecutive days) were immediately withdrawn from the study and humanely euthanized for post-mortem examination. These monkeys were euthanized by intravenous administration of 20% (w/v) pentobarbitone sodium solution (150 mg/kg body weight; Euthatal; Rhône-Mérieux, United Kingdom).
# [3] = design: method as in earlier work; conditions: cited from earlier work
# [4] = Pharmacokinetics in infected vervet monkeys (first stage HAT); type: in vivo, vervet monkey; conditions: monkey, plasma, po, prodrug in plasma post-LDD, all oral DB868 regimens; infected; 0.04 days = 1 h; read-out: Tmax (majority, 4/6 monkeys) (converted)
# [5] = Safety (overt toxicity, haematology, clinical chemistry) in uninfected vervet monkeys; conditions: for peak plasma urea relative to baseline: p<0.05; for highest post-treatment mean ALT: plasma
# [6] = test system: T. b. brucei GVR35; design: method as in PMID 19620327; conditions: oral administration; cited from earlier work
# [7] = test system: T. b. rhodesiense STIB900; design: method as in PMID 19620327; conditions: oral administration; cited from earlier work
# [8] = Pharmacokinetics in uninfected vervet monkeys; conditions: uninfected; for concentration at 24 h / concentration at 4 h: both, monkey, po; for concentration at 24 h / concentration at 4 h / C24 h: plasma; for concentration at 24 h: C24 h; for concentration at 4 h: geometric mean C4 h, n = 4
# [9] = oral 3 mg/kg×7 days, monkeys 638, 643
# [10] = oral 10 mg/kg/day×10 days, 1–2 days post-LDD
# [11] = after final oral dose of DB868 30 mg/kg×10 days, individual monkeys, 30 mg/kg
smiles,measurement,setting,value
"CONC(=N)c1ccc(-c2ccc(-c3ccc(C(=N)NOC)cn3)o2)nc1 [DB868, 2,5-bis[5-(N-methoxyamidino)-2-pyridyl]furan]",metabolites formed,[1],"metabolized in male vervet monkey liver microsomes to M1 (DB1679), M2 (DB840), M3 (DB1712), M4, and the active compound DB829"
same,day of dosing on which parasitologically negative,"[2]; oral 3 mg/kg/day for 7 days, monkey 638",6 day
same,time at which parasitologically negative,"[2]; oral 3 mg/kg/day for 7 days, monkey 643",3 days post-LDD
same,Trypanosomes blood/CSF at EoT,"[2]; oral 3 mg/kg×7 days from 7 DPI, monkeys 638, 643",Neg
same,Final efficacy assesment,[2]; [9],Cured
same,Provisional efficacy at 100 days post-treatment,[2]; [9],Cured
same,time at which consistently parasitologically negative,"[2]; oral 10 mg/kg/day for 7 days, monkey 675",7 days post-LDD
same,day of treatment on which parasitologically negative,"[2]; oral 10 mg/kg/day for 7 days, monkey 691",6 day
same,Trypanosomes blood/CSF at EoT,"[2]; oral 10 mg/kg×7 days from 7 DPI, monkeys 675, 691",Neg
same,Provisional efficacy at 100 days post-treatment,"[2]; oral 10 mg/kg×7 days, monkeys 675, 691",Cured
same,day of drug administration by which trypanosomes were undetectable in blood,"[2]; oral 20 mg/kg/day for 5 days, all three monkeys",≤ 4 days
same,Trypanosomes blood/CSF at EoT,"[2]; oral 20 mg/kg×5 days from 7 DPI, monkeys 585, 658, 686, Neg = negative, Pos = positive",Neg
same,time to clear parasites from the blood,"[2]; oral, '30 mg/kg group'",2 to 5 days
same,time to clearance of trypanosomes from peripheral blood,"[2]; oral, after the 1st dose, depending on the dose",2 to 14 days
same,cure of infected monkeys,"[2]; oral, all three regimens (3 mg/kg/day×7, 10 mg/kg/day×7, 20 mg/kg/day×5 days), treatment from 7 DPI",All infected monkeys were cured
same,dose required to achieve complete cure,"[2]; oral, for 7 days, first stage HAT monkey model",3 mg/kg
same,time to clear parasites from the blood,"[2]; oral, lower dose regimen groups (3 and 10 mg/kg)",6 to 14 days
same,"curative cumulative dose, fold lower than the maximum tolerated dose","[2]; oral, 21 mg/kg vs 300 mg/kg cumulative",14 fold
same,increase in ALT compared to untreated rats,"[3]; female Sprague-Dawley rats, oral 25 mg/kg/day for 3 weeks",less than 2 fold
same,effect on KIM-1,"[3]; oral 12 mg/kg/day×28 days, entire 4-month observation period",no effect
same,Tmax,[4],57.6 min
same,transient increase of plasma urea concentrations,"[5]; both dose groups, 1–2 days after the last drug dose",2–3 fold
same,adverse clinical signs,"[5]; oral 10 mg/kg/day for 10 days, uninfected, n = 4",did not exhibit any adverse clinical signs
same,BUN equivalent of peak mean urea,[5]; [10],35.9 mg/dL
same,mean creatinine concentration,[5]; [10],72.3 µmol/L
same,mean creatinine concentration (equivalent),[5]; [10],0.8 mg/dL
same,peak mean urea concentration,[5]; [10],12.8 mmol/L
same,peak plasma urea relative to baseline,[5]; [10],2.1 fold
same,maximum decline of mean body weight from baseline,"[5]; oral 10 mg/kg/day×10 days, baseline 3.2 kg±0.5",6.2%
same,highest post-treatment mean ALT relative to second baseline sample,"[5]; oral 10 mg/kg/day×10 days, p = 0.71",2.8 fold
same,highest post-treatment mean ALT,[5]; oral 10 mg/kg/day×10 days,31.3 IU/L
same,overt toxicity,"[5]; oral 30 mg/kg/day for 10 days (cumulative 300 mg/kg), uninfected, two of four monkeys: excess mucous in stool, transient inappetance",mild signs of toxicity; also recorded: No significant overt toxicity
same,peak plasma urea relative to baseline,"[5]; oral 30 mg/kg/day×10 days, 1–2 days post-LDD",2.7 fold
same,maximum decline of mean body weight from baseline,"[5]; oral 30 mg/kg/day×10 days, baseline 3.1 kg±0.3",6.5%
same,"mean white blood cell count, transient increase over baseline post-LDD","[5]; oral 30 mg/kg/day×10 days, p = 0.05, returned to baseline after 24 h, judged not drug-related",1.5 fold
same,highest post-treatment mean ALT relative to second baseline sample,"[5]; oral 30 mg/kg/day×10 days, p = 0.37",1.3 fold
same,highest post-treatment mean ALT,[5]; oral 30 mg/kg/day×10 days,20.5 IU/L
same,post-dosing variations of mean plasma creatinine,"[5]; oral 10 or 30 mg/kg/day×10 days, not statistically significant (p>0.05)",minimal
same,mean AST and total and direct bilirubin levels versus baseline,"[5]; oral 10 or 30 mg/kg/day×10 days, p>0.05",not statistically different from baseline values
same,"gastrointestinal toxicity (stool, faecal occult blood tests)","[5]; oral 10 or 30 mg/kg/day×10 days, uninfected",no notable gastrointestinal toxicity occurred
same,overall tolerability,"[5]; two oral regimens, 10 and 30 mg/kg/day for 10 days, uninfected",well tolerated
same,haematological parameters versus baseline,"[5]; two treatment groups, 10 and 30 mg/kg/day×10 days, uninfected",did not vary significantly from baseline
same,curative,[6],100%
same,curative,[7],100%
same,AUC0-∞,[8]; [11],200 nmol·days/L and 540 nmol·days/L and 260 nmol·days/L and 180 nmol·days/L
same,AUClast,[8]; [11],190 nmol·days/L and 530 nmol·days/L and 210 nmol·days/L and 170 nmol·days/L
same,t1/2 (terminal elimination half-life),[8]; [11],0.4 day and 1 day (2×) and 1.3 day
same,concentration at 24 h,"[8]; 10 mg/kg, 24 h after final oral dose of DB868 10 mg/kg×10 days, individual monkeys, BLQ = below limit of quantitation",0.006 µM
same,concentration at 4 h,"[8]; 10 mg/kg/day, oral DB868 10 mg/kg/day×10 days",0.089 µM
same,concentration at 24 h,"[8]; 30 mg/kg, 24 h after final oral dose of DB868 30 mg/kg×10 days, individual monkeys",0.066 µM
same,concentration at 4 h,"[8]; 30 mg/kg/day, oral DB868 30 mg/kg/day×10 days",0.466 µM
same,time for plasma concentration to decline below the limit of detection,[8]; oral DB868 10 mg/kg/day×10 days,less than 1 day post-LDD
same,time for plasma concentration to decline below the limit of detection,[8]; oral DB868 30 mg/kg/day×10 days,1–2 days post-LDD
same,"geometric mean C4 h, 30 mg/kg group relative to 10 mg/kg group",[8]; oral DB868×10 days,5.2 fold
same,C4 h,"[8]; plasma concentration at 4 h after final (10th) oral dose of DB868 10 mg/kg×10 days, individual monkeys 643, 659, 675, 677, 10 mg/kg",0.05 µM and 0.13 µM and 0.039 µM and 0.25 µM
same,C4 h,"[8]; plasma concentration at 4 h after final (10th) oral dose of DB868 30 mg/kg×10 days, individual monkeys 546, 567, 668, 679, 30 mg/kg",0.33 µM and 1.6 µM and 0.28 µM and 0.32 µM
same,C24 h,"[8]; 24 h after final oral dose of DB868 10 mg/kg×10 days, individual monkeys, BLQ = below limit of quantitation, 10 mg/kg",BLQ
same,C24 h,"[8]; 24 h after final oral dose of DB868 30 mg/kg×10 days, individual monkeys, 30 mg/kg",0.038 µM and 0.047 µM and 0.035 µM
